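Grown in 96-well plates, cells were treated for 48 hours with each compound at five concentrations. Insufficient inhibition: endpoint recorded as highest concentration tested. TGI denotes the concentration required for complete inhibition of growth.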
Legend:
Assay in all cases: inhibition of tumour cell growth, NCI panel, 48 h
786-0 renal = test system: 786-0 renal
A549 NSCLC = test system: A549 NSCLC
CAKI-1 renal = test system: CAKI-1 renal
CCRF-CEM leukemia = test system: CCRF-CEM leukemia
DU-145 prostate = test system: DU-145 prostate
HOP-62 NSCLC = test system: HOP-62 NSCLC
IGROV1 ovarian = test system: IGROV1 ovarian
KM12 colon = test system: KM12 colon
MCF7 breast = test system: MCF7 breast
MDA-MB-435 = test system: MDA-MB-435
MDA-N = test system: MDA-N
MOLT-4 leukemia = test system: MOLT-4 leukemia
NCI-H522 lung = test system: NCI-H522 lung
OVCAR-5 ovarian = test system: OVCAR-5 ovarian
RPMI-8226 leukemia = test system: RPMI-8226 leukemia
SF-268 CNS = test system: SF-268 CNS
SK-MEL-5 melanoma = test system: SK-MEL-5 melanoma
SR leukemia = test system: SR leukemia
TK-10 renal = test system: TK-10 renal

Row | Structure (SMILES) | TGI (786-0 renal) [µM] | TGI (A549 NSCLC) [µM] | TGI (CAKI-1 renal) [µM] | TGI (CCRF-CEM leukemia) [µM] | TGI (DU-145 prostate) [µM] | TGI (HOP-62 NSCLC) [µM] | TGI (IGROV1 ovarian) [µM] | TGI (KM12 colon) [µM] | TGI (MCF7 breast) [µM] | TGI (MDA-MB-435) [µM] | TGI (MDA-N) [µM] | TGI (MOLT-4 leukemia) [µM] | TGI (NCI-H522 lung) [µM] | TGI (OVCAR-5 ovarian) [µM] | TGI (RPMI-8226 leukemia) [µM] | TGI (SF-268 CNS) [µM] | TGI (SK-MEL-5 melanoma) [µM] | TGI (SR leukemia) [µM] | TGI (TK-10 renal) [µM]
1 | O=C1C(c2c(O)[nH]c3ccc(S(=O)(=O)O)cc23)=Nc2ccc(Br)cc21 | > 100 | > 100 | > 100 | > 100 | > 100 | > 100 | > 100 | > 100 | > 100 | > 100 | > 100 | > 100 | > 100 | > 100 | > 100 | > 100 | > 100 | > 100 | > 100
2 | COc1cc(=O)n2c3ccccc3n(C)c2c1C#N | > 100 | > 100 | > 100 | > 100 | > 100 | > 100 | > 100 | > 100 | > 100 | > 100 | > 100 | > 100 | > 100 | > 100 | > 100 | > 100 | > 100 | > 100 | > 100
3 | Nc1c(-c2nc3ccccc3o2)sc(=S)n1-c1ccc(Cl)cc1 | 22.9 | 39.2 | 53.4 | > 100 | 32.9 | 15.8 | 46.3 | > 100 | > 100 | > 100 | > 100 | > 100 | 49.7 | > 100 | > 100 | 33.9 | 56.9 | > 100 | > 100
4 | Oc1ccc2oc3c(O)c4ccccc4cc3c2c1 | 20 | > 100 | 68.7 | 8.47 | 15.6 | > 100 | 4.21 | 10.5 | 18.8 | 5.33 | 9.89 | 11.9 | 2.71 |  | 3.96 | 21.5 | 7.5 | 5.52 | 45
5 | COc1cc(/C=C/C(=O)OCCc2ccccc2)ccc1O | 30.4 | 38.9 | 29.7 |  | 30.4 | 33.4 | 28 | 30.3 | 44.8 | 27.3 | 34.4 | 37.9 | 22.1 | 32.8 | 65.9 | 47.4 | 33.7 | 83.5 | 28.3
6 | O=C(NNc1ccnc2cc(Cl)ccc12)/C(=C\c1ccccc1Cl)NC(=O)c1ccccc1 | > 100 | > 100 | > 100 | > 100 | > 100 | 48.6 | > 100 | 51.6 | 46.1 | > 100 | > 100 |  | 39.9 | > 100 | > 100 | 85.1 | 81.2 | > 100 | > 100
7 | C=CCC(CC=O)(C(=O)OCC)C(=O)OCC | > 100 | > 100 | > 100 | > 100 | > 100 | > 100 | > 100 | > 100 | > 100 | > 100 | > 100 | > 100 | > 100 | > 100 | > 100 | > 100 | > 100 | > 100 | > 100
8 | Cc1ccc(S(=O)(=O)/N=C(\N)N(C)N=O)cc1 | > 100 | > 100 | > 100 | > 100 | > 100 | > 100 | > 100 | > 100 | > 100 | > 100 | > 100 | > 100 | > 100 | > 100 | > 100 | > 100 |  | > 100 | > 100
9 | Cc1ccc(/C(=C\C(=O)C(=O)NC23CC4CC(CC(C4)C2)C3)Sc2ccccc2)cc1 | > 10 |  | > 10 | > 10 | > 10 | > 10 | > 10 | > 10 | > 10 | > 10 | > 10 | > 10 | > 10 | > 10 | > 10 | > 10 | > 10 | > 10 | > 10
10 | CCCCOC(=O)NC(Nc1ccc(S(=O)(=O)Nc2ccc(OC)nn2)cc1)(C(F)(F)F)C(F)(F)F | > 100 | > 100 | > 100 | > 100 | > 100 | > 100 | > 100 | > 100 | > 100 | > 100 | > 100 | > 100 |  | > 100 | > 100 | > 100 | > 100 | > 100 | > 100
11 | O=C(CC(C(=O)c1ccco1)c1cccs1)c1cccs1 (stereo not drawn) | > 100 | > 100 | > 100 |  | > 100 | > 100 | > 100 | > 100 | > 100 | > 100 | > 100 |  | > 100 | > 100 | > 100 | > 100 | > 100 | > 100 | > 100
12 | C=CCCCC1SC2=C(CC)CCCN2C1=O (stereo not drawn) | > 100 | > 100 | > 100 |  | > 100 | > 100 | > 100 | > 100 | > 100 | > 100 | > 100 | > 100 | > 100 | > 100 | > 100 | > 100 | > 100 | > 100 | > 100
13 | COC(=O)Nc1nc2ccc(S(=O)(=O)n3nnc4ccccc43)cc2[nH]1 | > 100 | > 100 | > 100 | > 100 | > 100 | 51.2 | > 100 | > 100 | > 100 | > 100 | > 100 | > 100 | > 100 | > 100 | > 100 | > 100 | > 100 | > 100 | 
14 | Cc1cccc(/C=C2\CCCc3ccccc3C2=O)c1 | > 100 | > 100 | > 100 | 35.1 | > 100 | 99.4 | 59.6 | 26.1 | 56.2 | 37 | 55 | 68.6 | 33.1 | 31.6 | 45.8 | 29.6 |  | 40.3 | > 100
15 | O=C1/C(=C/c2ccc(Cl)cc2)N=C(c2ccccc2)N1c1nc2ccccc2s1 | > 100 |  | > 100 | > 100 | > 100 | > 100 | > 100 | > 100 | > 100 | > 100 | > 100 | 57.7 | 75.1 | > 100 | > 100 | > 100 | > 100 | > 100 | > 100
16 | COc1cc(C=C2N=C(c3ccccc3)N(n3c(-c4ccccc4)nc4ccccc4c3=O)C2=O)cc(OC)c1OC | 45.9 | > 100 | > 100 | > 100 | 79.9 | 29.9 | 94.4 | 46.3 | 60.7 | 55.3 | 92.6 | > 100 | 39.7 | > 100 |  | 69 | 56.6 | > 100 | > 100
17 | COc1ccc(N=C2C(=Nc3ccc(OC)cc3)N(S(=O)(=O)c3ccccc3)C(=S)N2c2ccccc2)cc1 | > 100 | > 100 | > 100 |  | > 100 | > 100 | > 100 | > 100 | > 100 | > 100 | > 100 | > 100 | > 100 | > 100 | > 100 | > 100 | > 100 | > 100 | > 100
18 | Cc1cnc(-c2c[nH]c3ccccc23)nc1-c1c[nH]c2ccccc12 | 10.7 | 20.2 | 23.2 | 4.92 | 20.1 | 24.8 | 14.8 | 15.6 | 19.1 | 19.8 | 15.8 | 28.4 |  | 20.9 | > 100 | 35.6 | 20.5 | 33.9 | 18.1
19 | COCc1cc2c(cc1/C(=C/[N+](=O)[O-])CS(=O)(=O)c1ccccc1)OCO2 | > 100 | > 100 | > 100 | > 100 | > 100 | > 100 | > 100 |  | > 100 | > 100 | > 100 | > 100 | > 100 | > 100 | > 100 | > 100 | > 100 | > 100 | > 100
20 | CCOP(=O)(OCC)C(N)Cc1ccc(OC)c(OC)c1 (stereo not drawn) | > 100 | > 100 | > 100 | > 100 | > 100 |  | > 100 | > 100 | > 100 | > 100 | > 100 | > 100 | > 100 | > 100 | > 100 | > 100 | > 100 | > 100 | > 100

Reference: PubChem BioAssay (NCI)
